Several values for one entry are separate records, joined by “and”; a condition that tells them apart may be missing. Identical values can stand only once.
Test system: 485368-065-R4-J2-PDC spheroids with HUVEC/MSC, viability
Experiment: Anticancer human tumor 485368-065-R4-J2-PDC patient-derived pancreatic carcinoma cell line growth inhibition [CLK]
Settings: for viability, T/C: stronger effect = lower value; active = viability on the fitted dose curve at most 10% of control; inactive = the rest
Method in brief: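 Patient-derived tumor cells grown as complex spheroids with HUVEC endothelial cells and mesenchymal stem cells, treated with drug combinations. Concentrations descend in half-log steps from near clinical Cmax, or from 10 microM if Cmax unknown.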

[1] = curve of first compound, second compound 0.0316 µM
[2] = curve of first compound, second compound 0.1 µM
[3] = curve of first compound, second compound 0.316 µM
[4] = curve of first compound, second compound 1 µM
[5] = curve of first compound, second compound 3.16 µM
[6] = curve of first compound, second compound 10 µM
[7] = second compound 0.0316 µM, first compound 0.0316 µM
[8] = second compound 0.0316 µM, first compound 0.1 µM
[9] = second compound 0.0316 µM, first compound 0.316 µM
[10] = second compound 0.0316 µM, first compound 1 µM
[11] = second compound 0.0316 µM, first compound 3.16 µM
[12] = second compound 0.0316 µM, first compound 10 µM
[13] = second compound 0.1 µM, first compound 0.0316 µM
[14] = second compound 0.1 µM, first compound 0.1 µM
[15] = second compound 0.1 µM, first compound 0.316 µM
[16] = second compound 0.1 µM, first compound 1 µM
[17] = second compound 0.1 µM, first compound 3.16 µM
[18] = second compound 0.1 µM, first compound 10 µM
[19] = second compound 0.316 µM, first compound 0.0316 µM
[20] = second compound 0.316 µM, first compound 0.1 µM
[21] = second compound 0.316 µM, first compound 0.316 µM
[22] = second compound 0.316 µM, first compound 1 µM
[23] = second compound 0.316 µM, first compound 3.16 µM
[24] = second compound 0.316 µM, first compound 10 µM
[25] = second compound 1 µM, first compound 0.0316 µM
[26] = second compound 1 µM, first compound 0.1 µM
[27] = second compound 1 µM, first compound 0.316 µM
[28] = second compound 1 µM, first compound 1 µM
[29] = second compound 1 µM, first compound 3.16 µM
[30] = second compound 1 µM, first compound 10 µM
[31] = second compound 3.16 µM, first compound 0.0316 µM
[32] = second compound 3.16 µM, first compound 0.1 µM
[33] = second compound 3.16 µM, first compound 0.316 µM
[34] = second compound 3.16 µM, first compound 1 µM
[35] = second compound 3.16 µM, first compound 3.16 µM
[36] = second compound 3.16 µM, first compound 10 µM
[37] = second compound 10 µM, first compound 0.0316 µM
[38] = second compound 10 µM, first compound 0.1 µM
[39] = second compound 10 µM, first compound 0.316 µM
[40] = second compound 10 µM, first compound 1 µM
[41] = second compound 10 µM, first compound 3.16 µM
[42] = second compound 10 µM, first compound 10 µM
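Note: spheroids exposed to compounds for seven days.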
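Throughout, for viability, T/C: 100% = DMSO vehicle control wells.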

COc1ccc([C@@H](O)c2cc(-c3ncnc4cc(N5CCOCC5)ccc34)c(F)cc2Cl)nn1 + CN1CCN(c2cc(C(=O)Nc3cc4cc(-c5cnn(C)c5)ccc4cn3)ccn2)CC1
8180 nM: IC50 [3]
< 31.6 nM: IC50 [4] | IC50 [5] | IC50 [6]
active: viability, T/C [25] 0.59% | viability, T/C [26] 0.61% | viability, T/C [27] 0.67% | viability, T/C [28] 0.97% | viability, T/C [29] 0.95% | viability, T/C [30] 1.67% | viability, T/C [31] 1.12% | viability, T/C [32] 1.03% | viability, T/C [33] 0.98% | viability, T/C [34] 1.02% | viability, T/C [35] 1.01% | viability, T/C [36] 1.54% | viability, T/C [37] 1.19% | viability, T/C [38] 1.26% | viability, T/C [39] 1.23% | viability, T/C [40] 1.29% | viability, T/C [41] 2.19% | viability, T/C [42] 3.09%
> 10000 nM: IC50 [1] | IC50 [2]
inactive: viability, T/C [7] 106% | viability, T/C [8] 109% | viability, T/C [9] 111% | viability, T/C [10] 119% | viability, T/C [11] 109% | viability, T/C [12] 82% | viability, T/C [13] 114% | viability, T/C [14] 113% | viability, T/C [15] 113% | viability, T/C [16] 115% | viability, T/C [17] 100% | viability, T/C [18] 74.6% | viability, T/C [19] 79% | viability, T/C [20] 81.2% | viability, T/C [21] 69.7% | viability, T/C [22] 65% | viability, T/C [23] 61.3% | viability, T/C [24] 47.2%

CC(Nc1ccc2c(c1)OCCn1cc(N3C(=O)OCC3C(F)F)nc1-2)C(N)=O (configuration not stated) + CN1CCN(c2cc(C(=O)Nc3cc4cc(-c5cnn(C)c5)ccc4cn3)ccn2)CC1
> 10000 nM: IC50 [1] | IC50 [2]
158 nM: IC50 [3]
inactive: viability, T/C [7] 92.4% | viability, T/C [8] 109% | viability, T/C [9] 103% | viability, T/C [10] 83.3% | viability, T/C [11] 78.8% | viability, T/C [12] 62.3% | viability, T/C [13] 98.7% | viability, T/C [14] 95.5% | viability, T/C [15] 93% | viability, T/C [16] 68.8% | viability, T/C [17] 58.6% | viability, T/C [18] 53.4% | viability, T/C [19] 68.9% | viability, T/C [20] 55.8% | viability, T/C [21] 41.9% | viability, T/C [22] 30.3% | viability, T/C [23] 27.2% | viability, T/C [24] 20.7%
active: viability, T/C [25] 1.25% | viability, T/C [26] 1.05% | viability, T/C [27] 0.92% | viability, T/C [28] 0.74% | viability, T/C [29] 1.65% | viability, T/C [30] 1.84% | viability, T/C [31] 2.26% | viability, T/C [32] 1.12% | viability, T/C [33] 3.5% | viability, T/C [34] 2.02% | viability, T/C [35] 2.42% | viability, T/C [36] 2.95% | viability, T/C [37] 1.54% | viability, T/C [38] 2.13% | viability, T/C [39] 2.05% | viability, T/C [40] 2.62% | viability, T/C [41] 2.43% | viability, T/C [42] 2.04%
< 31.6 nM: IC50 [4] | IC50 [5] | IC50 [6]

O=C(c1cc(Cc2n[nH]c(=O)c3ccccc23)ccc1F)N1CCN(C(=O)C2CC2)CC1
> 10000 nM: IC50 (curve of compound)
inactive: viability, T/C (compound 0.0316 µM) 100% and 107% | viability, T/C (compound 0.1 µM) 97.7% and 89.2% | viability, T/C (compound 0.316 µM) 88.7% and 107% | viability, T/C (compound 1 µM) 98.2% and 104% | viability, T/C (compound 3.16 µM) 98.8% and 108% | viability, T/C (compound 10 µM) 89.5% and 94.8%

Cn1ncnc1[C@H]1c2n[nH]c(=O)c3cc(F)cc(c23)N[C@@H]1c1ccc(F)cc1 + CN1CCN(c2cc(C(=O)Nc3cc4cc(-c5cnn(C)c5)ccc4cn3)ccn2)CC1
> 100 nM: IC50 [1] | IC50 [2]
88.6 nM: IC50 [3]
active: viability, T/C (second compound 1 µM, first compound 0.000316 µM) 1.46% | viability, T/C (second compound 1 µM, first compound 0.001 µM) 0.88% | viability, T/C (second compound 1 µM, first compound 0.00316 µM) 1.83% | viability, T/C (second compound 1 µM, first compound 0.01 µM) 0.77% | viability, T/C [25] 1.6% | viability, T/C [26] 1.69% | viability, T/C (second compound 3.16 µM, first compound 0.000316 µM) 1% | viability, T/C (second compound 3.16 µM, first compound 0.001 µM) 1.76% | viability, T/C (second compound 3.16 µM, first compound 0.00316 µM) 0.88% | viability, T/C (second compound 3.16 µM, first compound 0.01 µM) 1.07% | viability, T/C [31] 1.7% | viability, T/C [32] 1.76% | viability, T/C (second compound 10 µM, first compound 0.000316 µM) 2.24% | viability, T/C (second compound 10 µM, first compound 0.001 µM) 1.19% | viability, T/C (second compound 10 µM, first compound 0.00316 µM) 1.54% | viability, T/C (second compound 10 µM, first compound 0.01 µM) 2.1% | viability, T/C [37] 2.02% | viability, T/C [38] 1.77%
inactive: viability, T/C (second compound 0.0316 µM, first compound 0.000316 µM) 99.9% | viability, T/C (second compound 0.0316 µM, first compound 0.001 µM) 107% | viability, T/C (second compound 0.0316 µM, first compound 0.00316 µM) 105% | viability, T/C (second compound 0.0316 µM, first compound 0.01 µM) 105% | viability, T/C [7] 109% | viability, T/C [8] 88.7% | viability, T/C (second compound 0.1 µM, first compound 0.000316 µM) 108% | viability, T/C (second compound 0.1 µM, first compound 0.001 µM) 112% | viability, T/C (second compound 0.1 µM, first compound 0.00316 µM) 119% | viability, T/C (second compound 0.1 µM, first compound 0.01 µM) 109% | viability, T/C [13] 96.6% | viability, T/C [14] 75.9% | viability, T/C (second compound 0.316 µM, first compound 0.000316 µM) 85.2% | viability, T/C (second compound 0.316 µM, first compound 0.001 µM) 87.8% | viability, T/C (second compound 0.316 µM, first compound 0.00316 µM) 84.1% | viability, T/C (second compound 0.316 µM, first compound 0.01 µM) 72.2% | viability, T/C [19] 55.9% | viability, T/C [20] 49.2%
< 0.316 nM: IC50 [4] | IC50 [5] | IC50 [6]

CCCS(=O)(=O)Nc1ccc(F)c(C(=O)c2c[nH]c3ncc(-c4ccc(Cl)cc4)cc23)c1F + CN1CCN(c2cc(C(=O)Nc3cc4cc(-c5cnn(C)c5)ccc4cn3)ccn2)CC1
inactive: viability, T/C [7] 112% | viability, T/C [8] 98.8% | viability, T/C [9] 98.3% | viability, T/C [10] 111% | viability, T/C [11] 93.8% | viability, T/C [12] 111% | viability, T/C [13] 105% | viability, T/C [14] 112% | viability, T/C [15] 103% | viability, T/C [16] 103% | viability, T/C [17] 96.5% | viability, T/C [18] 94.5% | viability, T/C [19] 84.1% | viability, T/C [20] 99.5% | viability, T/C [21] 102% | viability, T/C [22] 96.2% | viability, T/C [23] 97.9% | viability, T/C [24] 64.2%
> 10000 nM: IC50 [1] | IC50 [2] | IC50 [3]
< 31.6 nM: IC50 [4] | IC50 [5] | IC50 [6]
active: viability, T/C [25] 0.91% | viability, T/C [26] 2.34% | viability, T/C [27] 4.24% | viability, T/C [28] 1.9% | viability, T/C [29] 5.13% | viability, T/C [30] 3.9% | viability, T/C [31] 2.27% | viability, T/C [32] 3.77% | viability, T/C [33] 2.71% | viability, T/C [34] 3.9% | viability, T/C [35] 3.24% | viability, T/C [36] 5.64% | viability, T/C [37] 1.34% | viability, T/C [38] 4.22% | viability, T/C [39] 2.17% | viability, T/C [40] 3.01% | viability, T/C [41] 4.86% | viability, T/C [42] 6.03%

CC1COCCN1c1cc(C2(S(C)(=N)=O)CC2)nc(-c2ccnc3[nH]ccc23)n1 (configuration not stated)
> 10000 nM: IC50 (curve of compound)
inactive: viability, T/C (compound 0.0316 µM) 91.5% and 90.7% | viability, T/C (compound 0.1 µM) 97.5% and 93.1% | viability, T/C (compound 0.316 µM) 94.5% and 104% | viability, T/C (compound 1 µM) 108% and 91.3% | viability, T/C (compound 3.16 µM) 109% and 108% | viability, T/C (compound 10 µM) 102% and 113%

— PubChem BioAssay AID2060617 (Molecular Pharmacology Branch, DTP, NCI, 2025)
